{
  "source": "patent US20180325914A1",
  "about": "“INCREASING STORAGE OF VITAMIN A, VITAMIN D AND/OR LIPIDS” (Salk Institute for Biological Studies, priority 2014, published 2018)",
  "tested_on": "primary HSCs",
  "conditions": "mRNA-Seq expression",
  "data": [
    {"smiles": "Cc1sc2c(c1C)C(c1ccc(Cl)cc1)=N[C@@H](CC(=O)OC(C)(C)C)c1nnc(C)n1-2", "note": "[JQ1, (S)-tert-butyl 2-(4-(4-chlorophenyl)-2,3,9-trimethyl-6H-thieno[3,2-f][1,2,4]triazolo[4,3-a][1,4]diazepin-6-yl)acetate]", "values": [
      {"measurement": "value_2, gene Kcnab1", "setting": "Day_6_JQ1", "value": 5.987},
      {"measurement": "value_2, gene Kctd11", "setting": "Day_6_JQ1", "value": 40.3428},
      {"measurement": "value_2, gene Kidins220", "setting": "Day_6_JQ1", "value": 34.7188},
      {"measurement": "value_2, gene Lamb1", "setting": "Day_6_JQ1", "value": 116.83},
      {"measurement": "value_2, gene Large", "setting": "Day_6_JQ1", "value": 40.5667},
      {"measurement": "value_2, gene Lass6", "setting": "Day_6_JQ1", "value": 16.8557},
      {"measurement": "value_2, gene Lbh", "setting": "Day_6_JQ1", "value": 311.939},
      {"measurement": "value_2, gene Lrp1", "setting": "Day_6_JQ1", "value": 247.494},
      {"measurement": "value_2, gene Lynx1", "setting": "Day_6_JQ1", "value": 16.3298},
      {"measurement": "value_2, gene Maged1", "setting": "Day_6_JQ1", "value": 209.848},
      {"measurement": "value_2, gene Map1lc3a", "setting": "Day_6_JQ1", "value": 83.7075},
      {"measurement": "value_2, gene Marveld1", "setting": "Day_6_JQ1", "value": 50.0393},
      {"measurement": "value_2, gene Mmab", "setting": "Day_6_JQ1", "value": 8.1326},
      {"measurement": "value_2, gene Morc4", "setting": "Day_6_JQ1", "value": 8.504},
      {"measurement": "value_2, gene Mpp6", "setting": "Day_6_JQ1", "value": 75.1224},
      {"measurement": "value_2, gene Mxra8", "setting": "Day_6_JQ1", "value": 126.008},
      {"measurement": "value_2, gene Mypop", "setting": "Day_6_JQ1", "value": 8.4789},
      {"measurement": "value_2, gene Nans", "setting": "Day_6_JQ1", "value": 59.0594},
      {"measurement": "value_2, gene Ngfrap1", "setting": "Day_6_JQ1", "value": 196.152},
      {"measurement": "value_2, gene Nxn", "setting": "Day_6_JQ1", "value": 73.7521},
      {"measurement": "value_2, gene Ogn", "setting": "Day_6_JQ1", "value": 68.5101},
      {"measurement": "value_2, gene Olfml3", "setting": "Day_6_JQ1", "value": 169.404},
      {"measurement": "value_2, gene Oxct1", "setting": "Day_6_JQ1", "value": 46.8229},
      {"measurement": "value_2, gene Palm", "setting": "Day_6_JQ1", "value": 43.4603},
      {"measurement": "value_2, gene Parva", "setting": "Day_6_JQ1", "value": 84.643},
      {"measurement": "value_2, gene Pbxip1", "setting": "Day_6_JQ1", "value": 66.9739},
      {"measurement": "value_2, gene Pcbp4", "setting": "Day_6_JQ1", "value": 31.1679},
      {"measurement": "value_2, gene Pde5a", "setting": "Day_6_JQ1", "value": 4.315},
      {"measurement": "value_2, gene Pdk3", "setting": "Day_6_JQ1", "value": 17.7734},
      {"measurement": "value_2, gene Pdlim5", "setting": "Day_6_JQ1", "value": 120.722},
      {"measurement": "value_2, gene Pdrg1", "setting": "Day_6_JQ1", "value": 77.2251},
      {"measurement": "value_2, gene Pdzrn3", "setting": "Day_6_JQ1", "value": 35.4736},
      {"measurement": "value_2, gene Pgp", "setting": "Day_6_JQ1", "value": 55.4841},
      {"measurement": "value_2, gene Pgrmc1", "setting": "Day_6_JQ1", "value": 110.711},
      {"measurement": "value_2, gene Plcxd2", "setting": "Day_6_JQ1", "value": 8.321},
      {"measurement": "value_2, gene Plk4", "setting": "Day_6_JQ1", "value": 7.27},
      {"measurement": "value_2, gene Ppic", "setting": "Day_6_JQ1", "value": 178.683},
      {"measurement": "value_2, gene Pqlc3", "setting": "Day_6_JQ1", "value": 21.232},
      {"measurement": "value_2, gene Prdx4", "setting": "Day_6_JQ1", "value": 90.3086},
      {"measurement": "value_2, gene Prkab2", "setting": "Day_6_JQ1", "value": 26.0507},
      {"measurement": "value_2, gene Prr11", "setting": "Day_6_JQ1", "value": 6.831},
      {"measurement": "value_2, gene Prrx1", "setting": "Day_6_JQ1", "value": 33.6888},
      {"measurement": "value_2, gene Ptk7", "setting": "Day_6_JQ1", "value": 33.1681},
      {"measurement": "value_2, gene Ptprs", "setting": "Day_6_JQ1", "value": 25.6268},
      {"measurement": "value_2, gene Rab11fip5", "setting": "Day_6_JQ1", "value": 18.6008},
      {"measurement": "value_2, gene Rbfox2", "setting": "Day_6_JQ1", "value": 31.4181},
      {"measurement": "value_2, gene Rbms3", "setting": "Day_6_JQ1", "value": 14.5408},
      {"measurement": "value_2, gene Rhou", "setting": "Day_6_JQ1", "value": 27.2789},
      {"measurement": "value_2, gene Rrm1", "setting": "Day_6_JQ1", "value": 37.9825},
      {"measurement": "value_2, gene Rsu1", "setting": "Day_6_JQ1", "value": 115.627},
      {"measurement": "value_2, gene Sepn1", "setting": "Day_6_JQ1", "value": 53.0761},
      {"measurement": "value_2, gene Shisa4", "setting": "Day_6_JQ1", "value": 29.5421},
      {"measurement": "value_2, gene Sidt2", "setting": "Day_6_JQ1", "value": 85.8124},
      {"measurement": "value_2, gene Sil1", "setting": "Day_6_JQ1", "value": 25.0211},
      {"measurement": "value_2, gene Smpd1", "setting": "Day_6_JQ1", "value": 40.8765},
      {"measurement": "value_2, gene Snx7", "setting": "Day_6_JQ1", "value": 31.6545},
      {"measurement": "value_2, gene Sparc", "setting": "Day_6_JQ1", "value": 3945.98},
      {"measurement": "value_2, gene St3gal2", "setting": "Day_6_JQ1", "value": 27.017},
      {"measurement": "value_2, gene St6galnac6", "setting": "Day_6_JQ1", "value": 21.1878},
      {"measurement": "value_2, gene Ston1", "setting": "Day_6_JQ1", "value": 80.759},
      {"measurement": "value_2, gene Suox", "setting": "Day_6_JQ1", "value": 13.7986},
      {"measurement": "value_2, gene Synpo", "setting": "Day_6_JQ1", "value": 128.3},
      {"measurement": "value_2, gene Tln2", "setting": "Day_6_JQ1", "value": 10.7793},
      {"measurement": "value_2, gene Tmem176b", "setting": "Day_6_JQ1", "value": 232.156},
      {"measurement": "value_2, gene Tubb2a", "setting": "Day_6_JQ1", "value": 56.747},
      {"measurement": "value_2, gene Tulp4", "setting": "Day_6_JQ1", "value": 15.6577},
      {"measurement": "value_2, gene Tyms", "setting": "Day_6_JQ1", "value": 9.8},
      {"measurement": "value_2, gene Unc5b", "setting": "Day_6_JQ1", "value": 142.372},
      {"measurement": "value_2, gene Vcl", "setting": "Day_6_JQ1", "value": 188.104},
      {"measurement": "value_2, gene Wbp5", "setting": "Day_6_JQ1", "value": 336.924},
      {"measurement": "value_2, gene Zfp449", "setting": "Day_6_JQ1", "value": 5.689},
      {"measurement": "4833442J19Rik value_2 (Day_6_JQ1)", "setting": "primary HSCs, day 6 with JQ1", "value": 5.928},
      {"measurement": "4930583H14Rik value_2 (Day_6_JQ1)", "setting": "primary HSCs, day 6 with JQ1", "value": 0.6572},
      {"measurement": "AA467197 value_2 (Day_6_JQ1)", "setting": "primary HSCs, day 6 with JQ1", "value": 1.792},
      {"measurement": "AI427809 value_2 (Day_6_JQ1)", "setting": "primary HSCs, day 6 with JQ1", "value": 0.3782},
      {"measurement": "Acta1 value_2 (Day_6_JQ1)", "setting": "primary HSCs, day 6 with JQ1", "value": 5.299},
      {"measurement": "Actg2 value_2 (Day_6_JQ1)", "setting": "primary HSCs, day 6 with JQ1", "value": 9.747},
      {"measurement": "Adamtsl2 value_2 (Day_6_JQ1)", "setting": "primary HSCs, day 6 with JQ1", "value": 0.6746},
      {"measurement": "Ak4 value_2 (Day_6_JQ1)", "setting": "primary HSCs, day 6 with JQ1", "value": 2.207},
      {"measurement": "Alox5ap value_2 (Day_6_JQ1)", "setting": "primary HSCs, day 6 with JQ1", "value": 1.8396},
      {"measurement": "Angpt4 value_2 (Day_6_JQ1)", "setting": "primary HSCs, day 6 with JQ1", "value": 2.216},
      {"measurement": "Aoc3 value_2 (Day_6_JQ1)", "setting": "primary HSCs, day 6 with JQ1", "value": 0.7708},
      {"measurement": "Atp1a3 value_2 (Day_6_JQ1)", "setting": "primary HSCs, day 6 with JQ1", "value": 1.07},
      {"measurement": "Bcat1 value_2 (Day_6_JQ1)", "setting": "primary HSCs, day 6 with JQ1", "value": 1.171},
      {"measurement": "C1qtnf2 value_2 (Day_6_JQ1)", "setting": "primary HSCs, day 6 with JQ1", "value": 1.262},
      {"measurement": "C1qtnf5 value_2 (Day_6_JQ1)", "setting": "primary HSCs, day 6 with JQ1", "value": 5.303},
      {"measurement": "Cck value_2 (Day_6_JQ1)", "setting": "primary HSCs, day 6 with JQ1", "value": 0.3139},
      {"measurement": "Ccl12 value_2 (Day_6_JQ1)", "setting": "primary HSCs, day 6 with JQ1", "value": 0.2748},
      {"measurement": "Cdh3 value_2 (Day_6_JQ1)", "setting": "primary HSCs, day 6 with JQ1", "value": 1.477},
      {"measurement": "Cdh6 value_2 (Day_6_JQ1)", "setting": "primary HSCs, day 6 with JQ1", "value": 0.764},
      {"measurement": "Chd3 value_2 (Day_6_JQ1)", "setting": "primary HSCs, day 6 with JQ1", "value": 4.386},
      {"measurement": "Chst11 value_2 (Day_6_JQ1)", "setting": "primary HSCs, day 6 with JQ1", "value": 22.6881},
      {"measurement": "Cnn1 value_2 (Day_6_JQ1)", "setting": "primary HSCs, day 6 with JQ1", "value": 5.628},
      {"measurement": "Col6a2 value_2 (Day_6_JQ1)", "setting": "primary HSCs, day 6 with JQ1", "value": 6.3149},
      {"measurement": "Col6a3 value_2 (Day_6_JQ1)", "setting": "primary HSCs, day 6 with JQ1", "value": 7.234},
      {"measurement": "Col7a1 value_2 (Day_6_JQ1)", "setting": "primary HSCs, day 6 with JQ1", "value": 0.5444},
      {"measurement": "Col11a1 value_2 (Day_6_JQ1)", "setting": "primary HSCs, day 6 with JQ1", "value": 4.303},
      {"measurement": "Col15a1 value_2 (Day_6_JQ1)", "setting": "primary HSCs, day 6 with JQ1", "value": 0.2832},
      {"measurement": "Csdc2 value_2 (Day_6_JQ1)", "setting": "primary HSCs, day 6 with JQ1", "value": 0.913},
      {"measurement": "Cthrc1 value_2 (Day_6_JQ1)", "setting": "primary HSCs, day 6 with JQ1", "value": 4.104},
      {"measurement": "D430019H16Rik value_2 (Day_6_JQ1)", "setting": "primary HSCs, day 6 with JQ1", "value": 1.971},
      {"measurement": "Def6 value_2 (Day_6_JQ1)", "setting": "primary HSCs, day 6 with JQ1", "value": 0.8624},
      {"measurement": "Des value_2 (Day_6_JQ1)", "setting": "primary HSCs, day 6 with JQ1", "value": 14.4745},
      {"measurement": "Dkk2 value_2 (Day_6_JQ1)", "setting": "primary HSCs, day 6 with JQ1", "value": 0.918},
      {"measurement": "Dok5 value_2 (Day_6_JQ1)", "setting": "primary HSCs, day 6 with JQ1", "value": 1.203},
      {"measurement": "Dpep1 value_2 (Day_6_JQ1)", "setting": "primary HSCs, day 6 with JQ1", "value": 0.6357}
    ]}
  ]
}
